Compound	melting point
COc1cccc(CN(C)CCN(C)Cc2cccc(OC)c2O)c1O [Example 12, 6,6′-Dimethoxy-2,2′-[ethylenebis(methyliminomethylene)]diphenol]	115 to 116 °C
CCN(CCN(CC)Cc1cccc(OC)c1O)Cc1cccc(OC)c1O [Example 13, 6,6′-Dimethoxy-2,2′-[ethylenebis(ethyliminomethylene)]diphenol]	71 to 72 °C
COc1cccc(CN(C)CCCN(C)Cc2cccc(OC)c2O)c1O [Example 14, 6,6′-Dimethoxy-2,2′-[propane-1,3-diylbis(methyliminomethylene)]diphenol]	78 to 79 °C

Other lines, results leading:

melting point	Compound
197 to 198 °C	COc1cccc(CN2CCN(Cc3cccc(OC)c3O)CC2)c1O [Example 15, 6,6′-Dimethoxy-2,2′-(piperazine-1,4-diylbismethylene)diphenol]
130 °C (dec.)	CN(CCCN(C)Cc1cccc(O)c1O)Cc1cccc(O)c1O [Example 19, 3,3′-[Propane-1,3-diylbis(methyliminomethylene)]di(catechol)]
210 °C (dec.)	Oc1cccc(CN2CCN(Cc3cccc(O)c3O)CC2)c1O [Example 20, 3,3′-(Piperazine-1,4-diylbismethylene)di(catechol)]

— US20040138488A1, “Benzene-1 2-diol mannich bases ligands polymers and method of selective metal ions removal” (priority 2001, published 2004)
